This passage reports IC50 results from patent US20230119479A1, “A HISTONE DEACETYLASE INHIBITOR HAVING A NITROGEN-CONTAINING AROMATIC HETEROCYCLYL GROUP” (SHIONOGI & CO., LTD., priority 2019, published 2023).

For this assay, the target named is T1, HDAC2 Human recombinant C-terminal FLAG-tag (Homo sapiens, UniProt Q92769).
T1 construct: FLAG (C); purchased BPS Bioscience 50052
Put plainly: Measurement of HDAC2 enzyme inhibitory activity (HTRF). In kind it is biochemical. Particulars: recombinant HDAC2, H3K9ac peptide, 3 hours room temperature; read-out: HDAC2 IC50. The protocol: Test Example 1: Measurement of HDAC2 Enzyme Inhibitory Activity
The HDAC2 enzyme inhibitory activity was measured by the method described in the following test example.
To each well of a 384-well plate (Corning, 4514), DMSO solution of the test compound was dispensed at 50 nL/well from a final concentration of 99 μM to 8 points (n=2) in the 3-fold dilution series using Echo555 (Beckman Coulter). 2.5 μl of 0.005 mg/mL recombinant enzyme HDAC2 (HDAC2 Human recombinant C-terminal FLAG-tag, BPS Bioscience, 50052) was added to each well, 2.5 μl of 0.6 μM H3K9ac peptide (Lys(Ac)9-Histone H3 (1-21)-GGK(Biotin), AnaSpec, 64361) was added, mixed, and reacted in a wet box at room temperature for 3 hours. 50 mM Tris HCL pH8.0, 137 mM sodium chloride, 2.7 mM potassium chloride, 1 mM magnesium chloride, 0.01% Tween20, and 0.1% BSA which were diluted with ultrapure water were used as a reaction buffer at this time. After the reaction, 5 μL of 10 μM SAHA (suberoylanilide hydroxamic acid) as a reaction terminator and the 5 μL of a mixture of 2.5 ng of H3K9me0 antibody (ActiveMotif, 61399) labeled in-house with europium cryptate (Cisbio, 65EUSABA) and 125 nM streptavidin-XL665 (Cisbio, 610SAXLA) as an HTRF (time-resolved fluorescence) reagent were added to each well, mixed, and allowed to stand in a wet box at room temperature for reaction. A detection buffer used at this time was 50 mM Tris HCL pH 8.0, 0.8 M potassium fluoride, and 0.1% BSA which were diluted with ultrapure water. After reacting for 2 hours or more, HTRF was measured using a multi-plate reader such as SpectraMax Paradigm (MOLECULAR DEVICE) or RUBYstar (BMG LABTECH). Ratio (665 nm/615-620 nm×10000) was calculated from the fluorescence values of two wavelengths, 615-620 nm and 665 nm, which were excited at 320-340 nm, and the energy transition was obtained.

Each structure is given as a SMILES string.

T1 sequence (Q92769 whole entry): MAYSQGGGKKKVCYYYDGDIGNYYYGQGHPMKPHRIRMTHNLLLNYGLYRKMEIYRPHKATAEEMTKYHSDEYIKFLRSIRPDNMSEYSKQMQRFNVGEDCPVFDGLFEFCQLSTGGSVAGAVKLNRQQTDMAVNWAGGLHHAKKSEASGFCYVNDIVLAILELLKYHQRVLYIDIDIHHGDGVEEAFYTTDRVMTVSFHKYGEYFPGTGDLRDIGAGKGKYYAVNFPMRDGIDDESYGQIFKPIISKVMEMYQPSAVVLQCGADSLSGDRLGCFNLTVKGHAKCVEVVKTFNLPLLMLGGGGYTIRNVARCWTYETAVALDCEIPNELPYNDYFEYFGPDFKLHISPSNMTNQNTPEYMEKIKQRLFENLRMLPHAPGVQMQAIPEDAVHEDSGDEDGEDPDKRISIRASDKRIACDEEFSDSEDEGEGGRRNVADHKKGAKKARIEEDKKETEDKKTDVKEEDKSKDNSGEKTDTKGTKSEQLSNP

As for `Cn1cc(-c2ccc(C(=O)Nc3cc(-c4cccs4)ccc3N)nc2)nn1` [Compound I-001], the half-maximal inhibitory concentration (IC50) was determined as 56 nM.
Take `Cn1cc(-c2ccc(C(=O)Nc3cc(-c4ccco4)ccc3N)nc2)nn1` [Compound I-002]: the IC50 stood at 54 nM.
For the molecule `Cn1cc(-c2ccc(C(=O)Nc3cc(-c4cnco4)ccc3N)nc2)cn1` [Compound I-004], the half-inhibitory concentration (IC50) turned out to be 64 nM.
With `Cn1cc(-c2ccc(C(=O)Nc3cc(-c4ccco4)ccc3N)nc2)cn1` [Compound I-005] the figure was 220 nM.
Consider `Cn1cc(-c2cnc(C(=O)Nc3cc(-c4cccs4)ccc3N)cn2)cn1` [Compound I-007], for which the IC50 amounted to 96 nM.
As to `Cn1cc(-c2cnc(C(=O)Nc3cc(-c4ccco4)ccc3N)cn2)cn1` [Compound I-008], the IC50 is 120 nM.
On to `Cn1cc(-c2cnc(C(=O)Nc3cc(-c4cnco4)ccc3N)cn2)cn1` [Compound I-009], for which the IC50 stood at 61 nM.
`Cn1cc(-c2cnc(C(=O)Nc3cc(-c4cncs4)ccc3N)cn2)cn1` [Compound I-010]: the IC50 was found to be 31 nM.
`Cn1cc(-c2ccc(C(=O)Nc3cc(-c4cnco4)ccc3N)nc2)nn1` [Compound I-011]: the IC50 came to 57 nM.
As for `Cn1cc(-c2cnc(C(=O)Nc3cc(-c4cnco4)ccc3N)cn2)nn1` [Compound I-012], the half-inhibitory concentration (IC50) amounted to 94 nM.
`Cn1cc(-c2cnc(C(=O)Nc3cc(-n4cccc4)ccc3N)cn2)cn1` [Compound I-013]: the IC50 worked out at 100 nM.
Turning to `Cn1cc(-c2cnc(C(=O)Nc3cc(-c4cccs4)ccc3N)nc2)cn1` [Compound I-014], the IC50 worked out at 200 nM.
`Cn1cc(-c2cnc(C(=O)Nc3cc(-c4cccs4)ccc3N)c(F)c2)cn1` [Compound I-016]: the IC50 turned out to be 160 nM.
In the case of `Nc1ccc(-c2cncs2)cc1NC(=O)c1ccc(C(F)(F)F)cn1` [Compound I-020], the concentration for half-maximal inhibition (IC50) was found to be 260 nM.
For the molecule `Nc1ccc(-c2cncs2)cc1NC(=O)c1ccc(OC(F)(F)F)cn1` [Compound I-021], the IC50 came to 220 nM.
As for `Cn1cc(-c2cnc(C(=O)Nc3nc(-c4cccs4)ccc3N)c(F)c2)cn1` [Compound I-022], the IC50 amounted to 470 nM.
For the molecule `Cn1cc(-c2ccc(C(=O)Nc3nc(-n4cccc4)ccc3N)nc2)cn1` [Compound I-025], the IC50 turned out to be 370 nM.
In the case of `Cn1cc(-c2cnc(C(=O)Nc3nc(-c4ccco4)ccc3N)cn2)cn1` [Compound I-026], the IC50 is 320 nM.
As for `Cn1cc(-c2ccc(C(=O)Nc3cc(-c4cccs4)ccc3N)nn2)cn1` [Compound I-027], the IC50 came to 130 nM.
Turning to `Cc1ncc(-c2ccc(N)c(NC(=O)c3ccc(-c4cnn(C)c4)cn3)c2)s1` [Compound I-032], the half-maximal inhibitory concentration (IC50) came to 140 nM.
In the case of `Cn1cc(-c2ccc(C(=O)Nc3cc(-c4ccc(F)nc4)ccc3N)nc2)cn1` [Compound I-033] it was 88 nM.
In the case of `Cn1cc(-c2ccc(C(=O)Nc3nc(-c4cccs4)ccc3N)nc2)nn1` [Compound I-034], the IC50 was found to be 280 nM.
With `Cn1cc(-c2ccc(C(=O)Nc3cc(-c4cnn(C)c4)ccc3N)nc2)cn1` [Compound I-037] the figure was 180 nM.
Take `Cn1cc(-c2cnc(C(=O)Nc3nc(-c4ccccc4)ccc3N)cn2)cn1` [Compound I-039]: the IC50 worked out at 420 nM.
Consider `Cn1cc(-c2ccc(C(=O)Nc3cc(-c4ccc(F)nc4)ccc3N)nc2)nn1` [Compound I-040], for which the IC50 worked out at 63 nM.
With `Cn1cc(-c2ccc(C(=O)Nc3cc(-c4cncs4)ccc3N)nc2)nn1` [Compound I-046] the figure was 54 nM.
With `Cn1cc(-c2ccc(C(=O)Nc3cc(-c4cncs4)ccc3N)nc2)nn1` [Compound I-047], the IC50 amounted to 30 nM.
With `Cn1cc(-c2ccc(C(=O)Nc3cc(-n4cccc4)ccc3N)nc2)cn1` [Compound I-056] the figure was 120 nM; with `CCCCc1ccc(C(=O)Nc2cc(-c3cncs3)ccc2N)nc1` [Compound I-057], 320 nM.
With `C#Cc1ccc(C(=O)Nc2cc(-c3cncs3)ccc2N)nc1` [Compound I-058] the figure was 130 nM; with `Nc1ccc(-c2cncs2)cc1NC(=O)c1cc2ccncc2cn1` [Compound I-060], 47 nM.
`Cn1cc(-c2ccc(C(=O)Nc3nc(-c4cncs4)ccc3N)nc2)cn1` [Compound I-061]: the half-maximal inhibitory concentration (IC50) turned out to be 210 nM.
As to `Cn1cc(-c2ccc(C(=O)Nc3cc(-n4cccn4)ccc3N)nc2)cn1` [Compound I-063], the IC50 worked out at 270 nM.
In the case of `Nc1ccc(-c2cncs2)cc1NC(=O)c1cnc2[nH]ccc2n1` [Compound I-064], the half-inhibitory concentration (IC50) amounted to 96 nM.
In the case of `Nc1ccc(-c2cncs2)cc1NC(=O)c1ccc2nccn2n1` [Compound I-065], the concentration for half-maximal inhibition (IC50) came to 330 nM.
On to `Nc1ccc(-c2cncs2)cc1NC(=O)c1cc2ccccc2cn1` [Compound I-066], for which the IC50 turned out to be 110 nM.
For the molecule `Nc1ccc(-c2cncs2)cc1NC(=O)c1cc2c(cn1)OCCC2` [Compound I-067], the IC50 was determined as 120 nM.
With `Nc1ccc(-c2ccc(F)nc2)cc1NC(=O)c1cc2ccncc2cn1` [Compound I-068], the IC50 is 140 nM.
On to `N#Cc1ccc(C(=O)Nc2cc(-c3cncs3)ccc2N)nc1` [Compound I-069], for which the IC50 came to 160 nM.
As to `Nc1ccc(-c2cncs2)cc1NC(=O)c1cc2c(cn1)OC(F)(F)CO2` [Compound I-070], the IC50 was 240 nM.
In the case of `Nc1ccc(-c2cncs2)cc1NC(=O)c1ccc(Cl)cn1` [Compound I-071] it was 160 nM.
Turning to `Nc1ccc(-c2cncs2)cc1NC(=O)c1cc(Cl)c(Cl)cn1` [Compound I-072], the IC50 was determined as 480 nM.
For the molecule `Nc1ccc(-c2cncs2)cc1NC(=O)c1cc2c(cn1)OCCO2` [Compound I-073], the IC50 worked out at 120 nM.
As for `Nc1ccc(-c2cncs2)cc1NC(=O)c1cc2c(cn1)OC(F)(F)O2` [Compound I-074], the IC50 was found to be 270 nM.
In the case of `Cn1cc(-c2cnc(C(=O)Nc3nc(-c4ccc(F)nc4)ccc3N)cn2)cn1` [Compound I-079] it was 480 nM.
For the molecule `Nc1ccc(-c2cncs2)cc1NC(=O)c1ccc2[nH]ccc2n1` [Compound I-081], the IC50 turned out to be 280 nM.
With `Nc1ccc(-c2cncs2)cc1NC(=O)c1ccc2c(n1)CCCC2` [Compound I-082] the figure was 340 nM.
As to `Nc1ccc(-c2cncs2)cc1NC(=O)c1ccc2c(n1)CCC2` [Compound I-083], the half-inhibitory concentration (IC50) is 160 nM.
With `Cn1cc(-c2ccc(C(=O)Nc3cc(-c4ccon4)ccc3N)nc2)cn1` [Compound I-084], the IC50 stood at 310 nM.
Regarding `Nc1ccc(-c2ccc(F)nc2)cc1NC(=O)c1cnc2[nH]ccc2n1` [Compound I-086], the IC50 stood at 180 nM.
On to `Nc1ccc(-c2ccc(F)nc2)cc1NC(=O)c1ccc(F)cn1` [Compound I-089], for which the IC50 turned out to be 400 nM.
For the molecule `Nc1ccc(-c2ccc(F)nc2)cc1NC(=O)c1ccc(Cl)cn1` [Compound I-090], the IC50 was found to be 290 nM.
With `CC#Cc1ccc(C(=O)Nc2cc(-c3cncs3)ccc2N)nc1` [Compound I-094] the figure was 230 nM.
For the molecule `C#Cc1ccc(C(=O)Nc2cc(-c3ccc(F)nc3)ccc2N)nc1` [Compound I-096], the half-maximal inhibitory concentration (IC50) turned out to be 270 nM.
Turning to `Nc1ccc(-c2ccc(F)nc2)cc1NC(=O)c1cc2c(cn1)OCCO2` [Compound I-097], the IC50 was determined as 160 nM.
On to `Cn1cc(-c2ccc(N)c(NC(=O)c3cc4c(cn3)OCCO4)c2)cn1` [Compound I-098], for which the IC50 was 240 nM.
For the molecule `COc1cnc(C(=O)Nc2cc(-c3cncs3)ccc2N)cn1` [Compound I-099], the IC50 was 72 nM.
